Data as given in patent US6624182B1, “Hydroxyphenylvinylthiazoles” (Ciba Specialty Chemicals Corporation, priority 1999, dated 2003).

Key:
Assay in all cases: Determination of the minimum inhibitory concentration (MIC value) in microtitre plates
P. aeruginosa = assay type: cell-based, Pseudomonas aeruginosa CIP A-22; conditions: optical density at 620 nm, 48 hours at 37° C., MIC = ≦20% growth; tested at 100; 10 and 1 ppm (approximate values); (2), (3), (4) at 120; 60; 30; 15; 7.5; 3.75 ppm
Description: (§1) Determination of the Minimum Inhibitory Concentration (MIC Value) in Microtitre Plates Nutrient Medium Casein/soybean flour/peptone bouillon for the preparation of preliminary cultures of the test bacteria and yeast. Mycological slant agar for the preliminary culture of moulds Examples of Test Microbes: Bacteria: Pseudomonas aeruginosa CIP A-22 Procedure: The test substances are pre-dissolved in dimethyl sulfoxide (DMSO) and tested in a series of dilutions of 1:2. Bacteria and yeast are cultured overnight in CASO bouillon; the mould is cultured on myco-logical slant agar and sponged off with 10 ml of 0.85% sodium chloride solution (+0.1% Triton X-100). All the test microbes are adjusted to a germ count of 1−5×10^6 KBE/ml using 0.85% sodium chloride solution. The test substances are pre-pipetted into microtitre plates in an amount of 8 μl per well. Pre-diluted microbe suspensions are diluted 1:100 in CASO bouillon (bacteria and yeast) or Sabouraud 2% glucose bouillon (mould) and added to the test substances in an amount of 192 μl per well. The test batches are incubated for 48 hours at 37° C. (bacteria and yeast) or for 5 days at 28° C. (mould). After incubation, the growth is determined by means of the clouding of the test batches (optical density) at 620 nm in a microplate reader. The concentration of substance at which (compared with the growth control) a marked inhibition of growth (≦20% growth) of the test microbes can be observed is given as the minimum inhibitory concentration (MIC value). One microtitre plate is used per test microbe and substance concentration. All substances are tested in duplicate.

A. niger = assay type: cell-based, Aspergillus niger ATCC 6275; conditions: optical density at 620 nm, 5 days at 28° C., MIC = ≦20% growth; tested at 100; 10 and 1 ppm (approximate values); (2), (3), (4) at 120; 60; 30; 15; 7.5; 3.75 ppm
Description: as §1, with “Mould: Aspergillus niger ATCC 6275” for “Bacteria: Pseudomonas aeruginosa CIP A-22”

E. coli = assay type: cell-based, Escherichia coli NCTC 8196; conditions: optical density at 620 nm, 48 hours at 37° C., MIC = ≦20% growth; tested at 100; 10 and 1 ppm (approximate values); (2), (3), (4) at 120; 60; 30; 15; 7.5; 3.75 ppm
Description: as §1, with “Escherichia coli NCTC 8196” for “Pseudomonas aeruginosa CIP A-22”

S. aureus = assay type: cell-based; conditions: optical density at 620 nm, 48 hours at 37° C., MIC = ≦20% growth; tested at 100; 10 and 1 ppm (approximate values); (2), (3), (4) at 120; 60; 30; 15; 7.5; 3.75 ppm
Text: as §1, with “Staphylococcus hominis DMS 20328” for “Pseudomonas aeruginosa CIP A-22”

C. albicans = assay type: cell-based, Candida albicans ATCC 10231; conditions: optical density at 620 nm, 48 hours at 37° C., MIC = ≦20% growth; tested at 100; 10 and 1 ppm (approximate values); (2), (3), (4) at 120; 60; 30; 15; 7.5; 3.75 ppm
Description: as §1, with “Yeast: Candida albicans ATCC 10231” for “Bacteria: Pseudomonas aeruginosa CIP A-22”

Oc1cccc(/C=C/c2nc(-c3ccc(N4CCCC4)cc3)cs2)c1 [Compound of formula (28)]
>100 ppm: MIC values in ppm P. aeruginosa (P. aeruginosa) | MIC values in ppm A. niger (A. niger) | MIC values in ppm E. coli (E. coli) | MIC values in ppm S. aureus (S. aureus) | MIC values in ppm C. albicans (C. albicans)

COc1ccc(/C=C/c2nc(-c3ccc(N4CCCC4)cc3)cs2)cc1O [Compound of formula (29)]
>100 ppm: MIC values in ppm P. aeruginosa (P. aeruginosa) | MIC values in ppm A. niger (A. niger) | MIC values in ppm E. coli (E. coli) | MIC values in ppm S. aureus (S. aureus) | MIC values in ppm C. albicans (C. albicans)

CCOc1cc(/C=C/c2nc(-c3ccc(N4CCCC4)cc3)cs2)ccc1O [Compound of formula (30)]
>100 ppm: MIC values in ppm P. aeruginosa (P. aeruginosa) | MIC values in ppm A. niger (A. niger) | MIC values in ppm E. coli (E. coli) | MIC values in ppm S. aureus (S. aureus) | MIC values in ppm C. albicans (C. albicans)

COc1cc(/C=C/c2nc(-c3ccc(N4CCCC4)cc3)cs2)ccc1O [Compound of formula (31)]
>100 ppm: MIC values in ppm P. aeruginosa (P. aeruginosa) | MIC values in ppm A. niger (A. niger) | MIC values in ppm E. coli (E. coli) | MIC values in ppm S. aureus (S. aureus) | MIC values in ppm C. albicans (C. albicans)

COc1ccc(/C=C/c2nc(-c3ccc(N4CCCC4)cc3)cs2)c(O)c1 [Compound of formula (32)]
>100 ppm: MIC values in ppm P. aeruginosa (P. aeruginosa) | MIC values in ppm A. niger (A. niger) | MIC values in ppm E. coli (E. coli) | MIC values in ppm S. aureus (S. aureus) | MIC values in ppm C. albicans (C. albicans)

Oc1ccccc1/C=C/c1nc(-c2ccc(N3CCCC3)cc2)cs1 [Compound of formula (33)]
>100 ppm: MIC values in ppm P. aeruginosa (P. aeruginosa) | MIC values in ppm A. niger (A. niger) | MIC values in ppm E. coli (E. coli) | MIC values in ppm S. aureus (S. aureus) | MIC values in ppm C. albicans (C. albicans)

COc1cc(/C=C/c2nc(-c3ccc(N4CCCC4)cc3)cs2)cc(O)c1OC [Compound of formula (34)]
>100 ppm: MIC values in ppm P. aeruginosa (P. aeruginosa) | MIC values in ppm A. niger (A. niger) | MIC values in ppm E. coli (E. coli) | MIC values in ppm S. aureus (S. aureus) | MIC values in ppm C. albicans (C. albicans)

Cc1cc(/C=C/c2nc(-c3ccc(N4CCCC4)cc3)cs2)cc(C)c1O [Compound of formula (35)]
>100 ppm: MIC values in ppm P. aeruginosa (P. aeruginosa) | MIC values in ppm A. niger (A. niger) | MIC values in ppm E. coli (E. coli) | MIC values in ppm S. aureus (S. aureus) | MIC values in ppm C. albicans (C. albicans)

Cc1cccc(/C=C/c2nc(-c3ccc(N4CCCC4)cc3)cs2)c1O [Compound of formula (36)]
>100 ppm: MIC values in ppm P. aeruginosa (P. aeruginosa) | MIC values in ppm A. niger (A. niger) | MIC values in ppm E. coli (E. coli) | MIC values in ppm S. aureus (S. aureus) | MIC values in ppm C. albicans (C. albicans)

COc1cc(O)ccc1/C=C/c1nc(-c2ccc(N3CCCC3)cc2)cs1 [Compound of formula (38)]
>100 ppm: MIC values in ppm P. aeruginosa (P. aeruginosa) | MIC values in ppm A. niger (A. niger) | MIC values in ppm E. coli (E. coli) | MIC values in ppm S. aureus (S. aureus) | MIC values in ppm C. albicans (C. albicans)

CCc1csc(/C=C/c2ccc(O)cc2)n1 [Compound of formula (39)]
>100 ppm: MIC values in ppm P. aeruginosa (P. aeruginosa) | MIC values in ppm A. niger (A. niger) | MIC values in ppm E. coli (E. coli) | MIC values in ppm S. aureus (S. aureus) | MIC values in ppm C. albicans (C. albicans)

CCc1csc(/C=C/c2cccc(O)c2)n1 [Compound of formula (40)]
>100 ppm: MIC values in ppm P. aeruginosa (P. aeruginosa) | MIC values in ppm A. niger (A. niger) | MIC values in ppm E. coli (E. coli) | MIC values in ppm S. aureus (S. aureus) | MIC values in ppm C. albicans (C. albicans)
